The values below are quoted from earlier work in US20110130434A1, “MODIFIED RELEASE RAMIPRIL COMPOSITIONS AND USES THEREOF” (Panacea Biotec Ltd., priority 2008, published 2011).

In one data set the target is ACE (Homo sapiens, UniProt P12821).
For data set [1] the following is noted: after oral administration of ramipril.

ACE, sequence (P12821 30-1306, species assumed): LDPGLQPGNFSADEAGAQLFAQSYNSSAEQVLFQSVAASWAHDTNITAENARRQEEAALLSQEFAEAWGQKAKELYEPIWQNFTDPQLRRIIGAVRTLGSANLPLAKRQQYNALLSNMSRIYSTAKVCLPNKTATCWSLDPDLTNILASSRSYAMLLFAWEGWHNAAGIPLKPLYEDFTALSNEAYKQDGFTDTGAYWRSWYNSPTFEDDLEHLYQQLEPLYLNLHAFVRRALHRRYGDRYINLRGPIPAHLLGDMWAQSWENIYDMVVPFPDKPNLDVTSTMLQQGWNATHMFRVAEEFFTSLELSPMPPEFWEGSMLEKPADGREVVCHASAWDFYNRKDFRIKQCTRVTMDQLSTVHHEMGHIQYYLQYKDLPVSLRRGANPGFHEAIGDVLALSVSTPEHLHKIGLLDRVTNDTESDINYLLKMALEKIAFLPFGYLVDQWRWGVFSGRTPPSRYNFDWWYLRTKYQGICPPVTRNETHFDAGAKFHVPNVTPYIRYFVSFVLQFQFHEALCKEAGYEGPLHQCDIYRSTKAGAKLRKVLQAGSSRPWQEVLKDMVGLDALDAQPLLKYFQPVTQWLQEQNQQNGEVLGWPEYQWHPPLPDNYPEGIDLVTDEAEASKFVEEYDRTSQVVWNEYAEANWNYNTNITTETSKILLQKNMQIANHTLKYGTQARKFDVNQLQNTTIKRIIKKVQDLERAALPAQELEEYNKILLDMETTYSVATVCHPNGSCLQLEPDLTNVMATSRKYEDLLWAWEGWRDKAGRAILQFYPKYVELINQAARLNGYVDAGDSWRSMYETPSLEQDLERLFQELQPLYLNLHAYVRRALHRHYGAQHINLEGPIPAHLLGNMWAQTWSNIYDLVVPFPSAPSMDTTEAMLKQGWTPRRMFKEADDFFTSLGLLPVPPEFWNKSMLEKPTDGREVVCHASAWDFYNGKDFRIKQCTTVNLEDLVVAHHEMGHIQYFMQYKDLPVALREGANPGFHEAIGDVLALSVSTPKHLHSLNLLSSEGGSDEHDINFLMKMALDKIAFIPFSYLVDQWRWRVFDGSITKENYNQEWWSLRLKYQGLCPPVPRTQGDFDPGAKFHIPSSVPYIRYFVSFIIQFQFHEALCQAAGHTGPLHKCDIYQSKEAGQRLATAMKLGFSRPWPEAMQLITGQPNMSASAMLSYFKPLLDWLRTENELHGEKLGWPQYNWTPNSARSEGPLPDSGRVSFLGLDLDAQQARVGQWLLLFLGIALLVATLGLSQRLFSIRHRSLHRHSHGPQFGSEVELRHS

For `C[C@H](N[C@@H](CCc1ccccc1)C(=O)O)C(=O)N1[C@H](C(=O)O)C[C@@H]2CCC[C@@H]21` [ramiprilat], on ACE, the “ACE inhibitory activity relative to ramipril” value is 6 times. In addition, the half life in data set [1] was 13 to 17 h.
